Activity calls are given as the source filed them. The rule behind the calls is not given here.
Tests used:
[1] = Selectivity index, ratio of CC50 for mouse myoblasts cells to EC50 for Trypanosoma cruzi CA-I/72; type: toxicity; conditions: read-out: Ratio CC50/EC50
Trypanosoma cruzi [2] = test: Antiparasitic activity against Trypanosoma cruzi CA-I/72 incubated for 72 hrs by DAPI staining based microscopic analysis; type: functional, organism-based; conditions: CA-I/72, 72 h
Trypanosoma brucei [3] = test: Inhibition of TbrCatL using Z-FR-AMC as substrate at 100 uM by fluorimetric analysis relative to control
Cruzipain = Cruzipain (Trypanosoma cruzi, UniProt P25779); test: Inhibition of Trypanosoma cruzi cruzain using Z-FR-AMC as substrate preincubated for 10 mins followed by substrate addition by fluorimetric analysis
Trypanosoma brucei [4] = test: Antiparasitic activity against Trypanosoma brucei incubated for 72 hrs by SYBR Green 1 dye based fluorescence assay; type: functional, organism-based
Trypanosoma brucei [5] = test: Inhibition of TbrCatL using Z-FR-AMC as substrate at 100 uM preincubated for 10 mins followed by substrate addition by fluorimetric analysis relative to control
[6] = Inhibition of TbrCatL using Z-FR-AMC as substrate preincubated for 10 mins followed by substrate addition in presence of 0% Triton by fluorimetric analysis; parameters: species or system Trypanosoma brucei
[7] = target: Cruzipain (Trypanosoma cruzi) (UniProt P25779); test: Inhibition of Trypanosoma cruzi cruzain using Z-FR-AMC as substrate at 100 uM preincubated for 10 mins followed by substrate addition by fluorimetric analysis relative to control
[8] = Inhibition of TbrCatL using Z-FR-AMC as substrate preincubated for 10 mins followed by substrate addition in presence of 0.01% Triton by fluorimetric analysis; parameters: species or system Trypanosoma brucei
[9] = Inhibition of TbrCatL using Z-FR-AMC as substrate preincubated for 10 mins followed by substrate addition by fluorimetric analysis; parameters: species or system Trypanosoma brucei
[10] = target: Cruzipain (Trypanosoma cruzi) (UniProt P25779); test: Inhibition of Trypanosoma cruzi cruzain using Z-FR-AMC as substrate at 100 uM by fluorimetric analysis relative to control
[11] = target: Cruzipain (Trypanosoma cruzi) (UniProt P25779); test: Inhibition of Trypanosoma cruzi cruzain using Z-FR-AMC as substrate at 0.25 to 1 uM incubated for 10 mins by fluorimetric analysis; conditions: dose 0.25-1 µM
[12] = target: Nonstructural protein 3 (Zika virus) (UniProt A0A024AXB9); test: Inhibition of Zika virus NS2B-NS3 protease using Bz-Nle-Lys-Lys-Arg-AMC as substrate at 0.78 uM preincubated for 10 mins followed by substrate addition relative to control
[13] = Inhibition of TbrCatL using Z-FR-AMC as substrate preincubated for 10 mins in presence of BSA followed by substrate addition by fluorimetric analysis; parameters: species or system Trypanosoma brucei
Trypanosoma cruzi [14] = test: Potency index, ratio of benznidazole EC50 to test compound EC50 for antiparasitic activity against Trypanosoma cruzi CA-I/72 incubated for 72 hrs by DAPI staining based microscopic analysis; type: functional
[15] = Inhibition of TbrCatL using Z-FR-AMC as substrate preincubated for 10 mins followed by substrate addition in presence of 0.1% Triton by fluorimetric analysis; parameters: species or system Trypanosoma brucei
Trypanosoma cruzi [16] = test: Potency index, ratio of pentamidine EC50 to test compound EC50 for antiparasitic activity against Trypanosoma cruzi CA-I/72 incubated for 72 hrs by DAPI staining based microscopic analysis; type: functional

Sequence of Cruzipain (P25779 whole entry): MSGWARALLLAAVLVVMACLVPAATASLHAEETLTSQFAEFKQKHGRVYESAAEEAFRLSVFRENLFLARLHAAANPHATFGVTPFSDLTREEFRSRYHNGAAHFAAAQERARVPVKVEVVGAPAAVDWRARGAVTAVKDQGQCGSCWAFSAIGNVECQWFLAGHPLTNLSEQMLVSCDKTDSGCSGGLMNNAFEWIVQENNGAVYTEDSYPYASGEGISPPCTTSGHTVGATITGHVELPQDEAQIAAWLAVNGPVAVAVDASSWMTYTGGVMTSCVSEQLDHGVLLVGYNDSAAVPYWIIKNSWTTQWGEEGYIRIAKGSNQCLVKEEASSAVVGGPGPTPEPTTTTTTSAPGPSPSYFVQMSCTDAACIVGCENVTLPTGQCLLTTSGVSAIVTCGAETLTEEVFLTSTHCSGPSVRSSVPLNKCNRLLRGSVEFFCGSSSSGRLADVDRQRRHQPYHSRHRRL
Sequence of Cruzipain (Trypanosoma cruzi) (P25779 123-467 limits assumed): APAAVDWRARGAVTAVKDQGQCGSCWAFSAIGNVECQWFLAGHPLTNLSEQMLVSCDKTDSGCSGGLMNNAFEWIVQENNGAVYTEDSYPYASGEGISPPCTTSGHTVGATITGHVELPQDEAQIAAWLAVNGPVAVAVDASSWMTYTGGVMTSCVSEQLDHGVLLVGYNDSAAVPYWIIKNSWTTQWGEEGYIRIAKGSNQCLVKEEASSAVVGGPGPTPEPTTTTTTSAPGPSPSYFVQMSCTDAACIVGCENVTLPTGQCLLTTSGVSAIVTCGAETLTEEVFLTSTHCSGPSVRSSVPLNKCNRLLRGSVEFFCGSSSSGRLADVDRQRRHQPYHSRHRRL
Sequence of Nonstructural protein 3 (Zika virus) (A0A024AXB9 as listed by the source): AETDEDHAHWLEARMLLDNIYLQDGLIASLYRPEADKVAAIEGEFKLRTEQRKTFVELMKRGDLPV

Structure (SMILES) | EC50 (Trypanosoma cruzi [2]) [µM] | inhibition (Trypanosoma brucei [3]) [%] | IC50 (Cruzipain) [µM] | EC50 (Trypanosoma brucei [4]) [µM] | inhibition (Trypanosoma brucei [5]) [%] | IC50 [9] [µM] | inhibition [10] [%] | also measured
O=C(Cn1ccnc1[N+](=O)[O-])NCc1ccccc1 [BENZNIDAZOLE] | 5.4 | – | – | – | – | – | – | selectivity ratio [1]: > 9
OCC(CO)NCc1ccc(-c2ccc(Cl)c(C(F)(F)F)c2)o1 | > 10 | 0 | 133 | > 50 | 51 | – | – | –
NC(=S)N/N=C/c1cn(-c2ccc(Br)cc2Cl)nn1 | > 10 | 25 | – | > 50 | 98 | 2.5 | 16 | IC50 [6]: 0.6 µM; inhibition [7]: 6%; IC50 [8]: 2 µM
CN(C)CCCNCc1ccc(-c2ccc(Cl)cc2Cl)o1 | – | 81 | – | – | – | – | 67 | –
OCCNCc1cn(-c2ccc(Cl)cc2)nn1 | > 10 | – | – | > 50 | – | – | – | –
OCCNCc1cn(-c2ccc(Cl)c(Cl)c2)nn1 | > 10 | – | – | > 50 | – | – | – | –
Clc1ccc(-n2cc(CNCC3CCNCC3)nn2)cc1 | > 10 | – | – | 49.7 | – | 168 | – | –
O=C(NCCO)c1cn(-c2ccc(Br)cc2Cl)nn1 | > 10 | – | – | > 50 | – | – | – | –
OCCNCc1ccc(-c2ccc(Cl)c(Cl)c2)o1 | > 10 | 29 | – | > 50 | 40 | – | 62 | inhibition [7]: 55%
OCCNCc1ccc(-c2ccc(Br)cc2Cl)o1 | > 10 | 68 | 51 | 13 | 67 | 78 | – | –
NC(=S)N/N=C/c1ccc(-c2ccc(Cl)cc2)o1 | – | – | 1 | – | – | – | – | selectivity ratio [1]: > 18
N/C(S)=N/N=C/c1ccc(-c2ccc(Cl)cc2)o1 | 0.56 | 14 | – | 27 | 96 | 0.04 | 19 | inhibition [11]: inactive; IC50 [6]: 0.07 µM; inhibition [7]: 94%; inhibition [12]: 24%; IC50 [13]: 15 µM; IC50 [8]: 0.04 µM
OCC(CO)NCc1ccc(-c2ccc(Br)cc2Cl)o1 | > 10 | 64 | 149 | 39.5 | – | 90 | – | –
NC(=S)N/N=C/c1cn(-c2ccc(Cl)cc2)nn1 | > 10 | 73 | – | > 50 | 91 | 16.5 | 52 | IC50 [6]: 1 µM; inhibition [7]: 72%; IC50 [8]: 16 µM
Clc1cc(Br)ccc1-c1ccc(CNCCN2CCOCC2)o1 | 0.59 | 62 | 92 | 24.4 | 60 | 79 | – | selectivity ratio [1]: > 17
CN(C)CCCNCc1ccc(-c2ccc(Br)cc2)o1 | – | 59 | – | – | – | – | 79 | –
OCCNCc1cn(-c2ccc(Br)cc2Cl)nn1 | > 10 | – | – | > 50 | – | – | – | –
NC(=S)N/N=C/c1ccc(-c2ccc(Br)cc2Cl)o1 | 0.027 | 22 | 0.45 | > 50 | 90 | 0.05 | 17 | inhibition [11]: inactive; Ratio EC50 (Trypanosoma cruzi [14]): 200; IC50 [6]: 0.006 µM; inhibition [7]: 70%; inhibition [12]: 8%; IC50 [13]: 14 µM; selectivity ratio [1]: > 370; IC50 [8]: 0.05 µM; IC50 [15]: 0.7 µM; Ratio EC50 (Trypanosoma cruzi [16]): 200

From ChEMBL document CHEMBL5247638, “From rational design to serendipity: Discovery of novel thiosemicarbazones as potent trypanocidal compounds” (Eur J Med Chem, 2022)
